Among the data in patent US7625948B2, “Ester compound and medicinal use thereof” (Japan Tobacco Inc., priority 2002, dated 2009) are IC50 values, retold here.

In general, IC50 refers to the midpoint of a concentration-inhibition curve.

Structures are written as SMILES.

The subject of one assay is HepG2 cells. Nature of the assay: Test Example 2: inhibition of apolipoprotein B secretion from HepG2 cells, ELISA (also used for metabolites in Test Example 8). In kind it is cell-based. The settings on record: Homo sapiens, 24 hours, apo B in supernatant by ELISA, read-out: Test Example 2 Inhibition of apo B secretion IC50. On the procedure: Inhibition of Apolipoprotein B Secretion from HepG2 Cells
HepG2 cells were suspended in Dulbecco's Modified Eagle's Medium (DMEM) (containing 10% fetal bovine serum, 100 units/mL penicillin and 100 μg/mL streptomycin), and placed on a 96-well plate (4×10^4 cells/well), then incubated for 24 hours. After removal of the medium, DMEM was replaced by a medium containing a sample dissolved in DMSO or a medium containing DMSO (concentration of DMSO: 0.5%) and incubation was further performed for 24 hours, after which the supernatant was recovered, and concentration of apo B in the supernatant was assayed by Enzyme-Linked Immunosorbent Assay (ELISA)
ELISA was carried out as follows. Anti-human apo B monoclonal antibody (0.5 μg/well) diluted with a solution of sodium carbonate in sodium bicarbonate buffer (50 mL, pH 9.6) was placed in a 96-well plate for ELISA, and allowed to stand at room temperature for 15 hours. After washing the plate, a blocking solution (250 μL/well) was placed in the well, and allowed to stand at room temperature for 1.5 hours. After washing the plate, a standard and a sample (100 μL/well) were placed in the well and allowed to stand at room temperature for one hour. The standard was prepared by adjusting the concentration of the purified human apo B with the DMEM to 0 to 1000 ng/mL. After washing the plate, an anti-human apo B polyclonal antibody labeled with a horse radish peroxidase which was diluted in 1:1000 with DEME (100 μL/well), and allowed to stand at room temperature for one hour. After washing the plate, 2,2-azinobis(3-ethylbenzothiazoline-6-sulfonic acid) solution (100 μL/well) was placed in the well, and allowed to stand at room temperature for one hour. The reaction was stopped by addition of 2% oxalic acid (100 μL/well), and absorbency at 405 nm was measured. Concentration of apo B in the sample was calculated on the basis of a standard curve of the standard. Inhibition rate (%) was calculated from the assayed values in accordance with the following equation.
Inhibition rate (%)=100×(1 minus (concentration of apo B in sample group/concentration of apo B in DMSO group).
Based on the above equation, 50% inhibition concentration (IC50) was determined.
Inhibitory Activity on MTP and apo B Secretion Inhibition by Metabolites
In a similar manner to Test Examples 1 and 2, the activity of metabolites was assayed.
For orientation: An ELISA detects its analyte on a solid surface through an enzyme-linked reagent.
Take `CCOC(=O)C(COC(=O)Cc1ccc(NC(=O)c2ccccc2-c2ccc(C(F)(F)F)cc2)c(C(=O)N(C)C)c1)(C(=O)OCC)c1ccccc1Cl` [Example 2-71]: the IC50 came out at 0.54 nM.

On to `CCOC(=O)C(COC(=O)Cc1ccc(NC(=O)c2ccccc2-c2ccc(C(F)(F)F)cc2)c(NC(C)=O)c1)(C(=O)OCC)c1ccccc1` [Example 9-21], for which the IC50 amounted to 20 nM.

As to `CCOC(=O)C(COC(=O)Cc1ccc(NC(=O)c2ccccc2-c2ccc(C(F)(F)F)cc2)c(C(=O)N(C)C)c1)(C(=O)OCC)c1nccs1` [Example 2-110], the half-maximal inhibitory concentration (IC50) amounted to 0.65 nM.

Consider `CCCOc1cc(CC(=O)OCC(C(=O)NCC)(C(=O)NCC)c2ccccc2)ccc1NC(=O)c1ccccc1-c1ccc(C(F)(F)F)cc1` [Example 3-12], for which the IC50 was determined as 0.72 nM.

`CCNC(=O)C(COC(=O)Cc1ccc(NC(=O)c2ccccc2-c2ccc(C(F)(F)F)cc2)c(N2CCCCC2)c1)(C(=O)NCC)c1ccccc1` [Example 4-2]: the IC50 is 16 nM.

`CCOC(=O)C(COC(=O)Cc1ccc(NC(=O)c2ccccc2-c2ccc(C(F)(F)F)cc2)c(C(=O)OCc2ccccc2)c1)(C(=O)OCC)c1ccccc1` [Example 9-14]: the IC50 came to 41 nM.

Consider `CCOC(=O)C(COC(=O)Cc1ccc(NC(=O)c2ccccc2-c2ccc(C(C)=O)cc2)c(C(=O)N(C)C)c1)(C(=O)OCC)c1ccccc1` [Example 2-43], for which the IC50 was found to be 9 nM.

On to `CCOC(=O)C(CC)(COC(=O)Cc1ccc(NC(=O)c2ccccc2-c2ccc(C(F)(F)F)cc2)c(C(=O)N(C)C)c1)C(=O)OCC` [Example 2-115], for which the IC50 was 44 nM.

Turning to `CN(C)C(=O)c1cc(CC(=O)OCC2(c3ccccc3)CCCC2)ccc1NC(=O)c1ccccc1-c1ccc(C(F)(F)F)cc1` [Example 2-102], the IC50 amounted to 14.6 nM.

Turning to `CCOC(=O)C(COC(=O)Cc1ccc(NC(=O)c2ccccc2-c2ccc(C(F)(F)F)cc2)c(Br)c1)(C(=O)OCC)c1ccccc1` [Example 1-85], the IC50 stood at 3.2 nM.

Consider `CN(C)C(=O)c1cc(CC(=O)OCC(CO)(CO)c2ccccc2)ccc1NC(=O)c1ccccc1-c1ccc(C(F)(F)F)cc1` [Example 2-103], for which the IC50 is 42.6 nM.

As to `CCOC(=O)C(COC(=O)Cc1ccc(NC(=O)c2ccccc2-c2ccc(C(F)(F)F)cc2)c(C(=O)N(C)C)c1)(C(=O)OCC)c1ccccc1OC` [Example 2-75], the IC50 came to 12.5 nM.

`CCOC(=O)C(COC(=O)Cc1ccc(NC(=O)c2ccccc2-c2ccc(C(F)(F)F)c(F)c2)c(C(=O)N(C)C)c1)(C(=O)OCC)c1ccccc1` [Example 2-61]: the IC50 was determined as 0.38 nM.

For the molecule `CCOC(=O)C(COC(=O)Cc1ccc(NC(=O)c2ccccc2-c2ccc(C#N)cc2)c(C(=O)N(C)C)c1)(C(=O)OCC)c1ccccc1` [Example 2-46], the concentration for half-maximal inhibition (IC50) amounted to 2.9 nM.

As for `CCOC(=O)C(COC(=O)Cc1ccc(NC(=O)c2c(C)cccc2-c2ccc(C(F)(F)F)cc2)c(C(=O)N(C)C)c1)(C(=O)OCC)c1ccccc1` [Example 2-86], the IC50 was determined as 0.42 nM.

For the molecule `CCNC(=O)C(COC(=O)Cc1ccc(NC(=O)c2ccccc2-c2ccc(C(F)(F)F)cc2)c(O)c1)(C(=O)NCC)c1ccccc1` [Example 3-2, {3-Hydroxy-4-[(4′-trifluoromethylbiphenyl-2-carbonyl)amino]phenyl}acetic acid 2,2-bisethylcarbamoyl-2-phenylethyl ester], the IC50 is 4.2 nM.

`CCOC(=O)C(COC(=O)Cc1ccc(NC(=O)c2ccccc2-c2ccc(C(F)(F)F)cc2)c(CC)c1)(C(=O)OCC)c1ccccc1` [Example 1-78]: the IC50 came to 11 nM.

Consider `CCOC(=O)C(COC(=O)Cc1ccc(NC(=O)c2ccccc2-c2ccc(C(F)(F)F)cc2)c(C(=O)N(C)C)c1)(C(=O)OCC)c1ccc(C)s1` [Example 2-109], for which the IC50 is 0.93 nM.

As to `CCNC(=O)C(COC(=O)Cc1ccc(NC(=O)c2cccnc2-c2ccc(C(F)(F)F)cc2)c(C)c1)(C(=O)NCC)c1ccccc1` [Example 1-77], the IC50 turned out to be 360 nM.

For the molecule `CCNC(=O)C(COC(=O)Cc1ccc(NC(=O)c2ccccc2-c2ccc(C(F)(F)F)cc2)c(C(=O)OCc2ccccc2)c1)(C(=O)NCC)c1ccccc1` [Example 9-8], the half-inhibitory concentration (IC50) stood at 6.9 nM.

On to `CCOC(=O)C(COC(=O)Cc1cc(C(=O)N(C)C)c(NC(=O)c2ccccc2-c2ccc(C(F)(F)F)cc2)cn1)(C(=O)OCC)c1ccccc1` [Example 2-107], for which the IC50 was 50 nM.

In the case of `C=CCC(COC(=O)Cc1ccc(NC(=O)c2ccccc2-c2ccc(C(F)(F)F)cc2)c(C(=O)N(C)C)c1)(C(=O)OCC)C(=O)OCC` [Example 2-117], the IC50 was determined as 38 nM.

`CCOC(=O)C(COC(=O)Cc1cc(C(=O)N(C)C)c(NC(=O)c2ccccc2-c2ccc(C(F)(F)F)cc2)c(Br)c1F)(C(=O)OCC)c1ccccc1` [Example 2-67]: the IC50 came to 43 nM.

With `CCOC(=O)C(COC(=O)Cc1ccc(NC(=O)c2ccccc2-c2ccc(C(F)(F)F)cc2)c(C(=O)N(C)OC)c1)(C(=O)OCC)c1ccccc1` [Example 9-27], the IC50 worked out at 0.82 nM.

With `CCOC(=O)C(COC(=O)Cc1ccc(NC(=O)c2ccccc2-c2ccc(C(F)(F)F)cc2)c(C(=O)N(C)C)c1)(C(=O)OCC)c1ccc(C)cc1` [Example 2-70], the IC50 was found to be 2.34 nM.

`CCOC(=O)C(COC(=O)Cc1ccc(NC(=O)c2ccc(OC)cc2-c2ccc(C(F)(F)F)cc2)c(C(=O)N(C)C)c1)(C(=O)OCC)c1ccccc1` [Example 2-53]: the IC50 stood at 4.6 nM.

Turning to `CCNC(=O)C(COC(=O)Cc1ccc(NC(=O)c2ccccc2-c2ccc(C(F)(F)F)cc2)c(OCc2ccccc2)c1)(C(=O)NCC)c1ccccc1` [Example 3-13], the IC50 was 1.9 nM.

Turning to `CCOC(=O)C(COC(=O)Cc1ccc(NC(=O)c2ccccc2-c2ccc(C(F)(F)F)cc2)c(C(=O)N(C)C)c1)(C(=O)OCC)c1sccc1C` [Example 2-108], the IC50 is 0.82 nM.

Regarding `CCNC(=O)C(COC(=O)Cc1ccc(NC(=O)c2ccccc2C(F)(F)F)c(C(=O)N(C)C)c1)(C(=O)NCC)c1ccccc1` [Example 2-30], the IC50 worked out at 27 nM.

As to `CCOC(=O)C(CCOC(=O)Cc1cccc(NC(=O)c2ccccc2-c2ccc(C(F)(F)F)cc2)c1OC)(C(=O)OCC)c1ccccc1` [Example 5-13], the IC50 was 2.4 nM.

As to `CN(C)C(=O)c1cc(CC(=O)OCC(C(=O)OCC(F)(F)F)(C(=O)OCC(F)(F)F)c2ccccc2)ccc1NC(=O)c1ccccc1-c1ccc(C(F)(F)F)cc1` [Example 2-56], the IC50 came out at 0.93 nM.

On to `CCNC(=O)C(COC(=O)Cc1ccc(NC(=O)c2cccnc2-c2ccc(C(F)(F)F)cc2)cc1)(C(=O)NCC)c1ccccc1` [Example 1-76], for which the IC50 came out at 120 nM.

As to `CCOC(=O)C(COC(=O)Cc1ccc(NC(=O)c2ccccc2-c2ccc(C(F)(F)F)cc2F)c(C(=O)N(C)C)c1)(C(=O)OCC)c1ccccc1` [Example 2-57], the half-maximal inhibitory concentration (IC50) stood at 0.56 nM.

Turning to `CCNC(=O)C(COC(=O)Cc1ccc(NC(=O)c2ccccc2-c2ccc(C(F)(F)F)cc2)c(N(C)C)c1)(C(=O)NCC)c1ccccc1` [Example 4, 2-{3-Dimethylamino-4-[(4′-trifluoromethylbiphenyl-2-carbonyl)amino]phenyl}acetic acid 2,2-bisethylcarbamoyl-2-phenylethyl ester], the IC50 was determined as 0.33 nM.

Take `CCOC(=O)C(COC(=O)Cc1ccc(NC(=O)c2cc(C)ccc2-c2ccc(C(F)(F)F)cc2)c(C(=O)N(C)C)c1)(C(=O)OCC)c1ccccc1` [Example 2-47]: the IC50 was found to be 1.2 nM.

Turning to `CCOC(=O)CC(COC(=O)Cc1ccc(NC(=O)c2ccccc2-c2ccc(C(F)(F)F)cc2)c(C(=O)N(C)C)c1)(C(=O)OCC)c1ccccc1` (centres unmarked) [Example 2-74], the IC50 is 0.84 nM.

For the molecule `CCOC(=O)C(COC(=O)Cc1ccc(NC(=O)c2ccccc2-c2ccc(C(F)(F)F)cc2)c(CC(C)C)c1)(C(=O)OCC)c1ccccc1` [Example 1-83], the IC50 stood at 0.23 nM.

With `CCOC(=O)C(COC(=O)Cc1ccc(NC(=O)c2ccccc2Oc2cccc(C(F)(F)F)c2)c(C(=O)N(C)C)c1)(C(=O)OCC)c1ccccc1` [Example 2-97], the IC50 came out at 22 nM.

In the case of `CCCN(C)C(=O)c1cc(CC(=O)OCCC(C(=O)NCC)(C(=O)NCC)c2ccccc2)ccc1NC(=O)c1ccccc1-c1ccc(C(F)(F)F)cc1` [Example 2-20], the IC50 was 0.64 nM.

In the case of `CCOC(=O)C(COC(=O)Cc1ccc(NC(=O)c2ccccc2-c2ccc(CC)cc2)c(C(=O)N(C)C)c1)(C(=O)OCC)c1ccccc1` [Example 2-90], the half-inhibitory concentration (IC50) came to 1.74 nM.

The same assay, now with this note: Homo sapiens, main metabolites of the compounds (Test Example 8), read-out: Inhibition of apo B secretion IC50.
Consider `O=C(O)Cc1ccc(NC(=O)c2ccccc2-c2ccc(C(F)(F)F)cc2)c(C(=O)N2CCCC2)c1`, for which the IC50 was more than 10000 nM.
